Measurements: article PMC12683522 (Frontiers in Pharmacology, 2025)

How the values were obtained:
[1] = Single-dose pharmacokinetics of palbociclib tablets under fasting conditions with rabeprazole pre-treatment; type: in vivo, healthy Chinese subjects; conditions: sampling to 96 h after administration
Protocol: This was a single-center, randomized, open-label, single-dose, two-period crossover bioequivalence study conducted under fasting conditions with rabeprazole pre-treatment. It was carried out at the Phase I Clinical Research Center of Hebei General Hospital in Shijiazhuang, Hebei Province, China, from 12 September 2023, to 27 October 2023. […] Water intake was prohibited from 1 h before to 1 h after each dose (except for breakfast and water used for medication administration). On Day 1, under fasted conditions (at least 10 h), subjects received their seventh dose of rabeprazole and maintained fasting for an additional 4 h. […]
Tmax, t1/2z, elimination rate constant (λz) and percentage of extrapolated residual area (AUC_%Extrap) were the secondary endpoints. […] Cmax and Tmax were determined directly from the observed plasma concentration-time profiles. AUC0-t was calculated using the linear/log trapezoidal method. AUC0‐∞ was determined by formula: AUC0‐∞ = AUC0-t + Ct/λz, where Ct was the last measurable concentration. The slope of the terminal segment of the semi-logarithmic drug-time curve calculated by linear regression is used to obtain λz. t1/2z was calculated as ln2/λz. AUC_%Extrap was determined by formula: AUC_%Extrap = [( AUC0‐∞ - AUC0-t)/ AUC0‐∞ ]×100%. For pharmacokinetic parameters that cannot be calculated due to inapplicable data, they are marked with “-” in the dataset.

[2] = Safety assessment (adverse events, CTCAE v5.0); type: in vivo, healthy Chinese subjects
Protocol: Safety assessments included AEs, SAEs, concomitant medications, laboratory tests, clinical symptoms, vital sign measurements, 12-lead ECG and physical examination results. […] Laboratory tests, physical examinations, and 12-lead ECG were performed at screening and during the follow-up period. All AEs were monitored throughout the study by the research doctors and spontaneously reported by the subjects. AEs were coded using MedDRA (Medical Dictionary for Regulatory Activities: Version 26.1) and summarized according to System Organ Class (SOC) and Preferred Term (PT), including the number and percentage of subjects experiencing AEs and the frequency of AEs. The severity of AEs was graded according to the Common Terminology Criteria for Adverse Events (CTCAE, Version 5.0) issued by the U.S. National Cancer Institute. Missing safety data were labeled as “Missing” in the datasets and were not imputed in the subsequent analyses.

[3] = Bioequivalence analysis of test vs reference palbociclib tablets (GLSM ratio, 90% CI); type: in vivo, healthy Chinese subjects; conditions: fasting, rabeprazole pre-treatment
Protocol: After log-transforming Cmax, AUC0−t, and AUC0‐∞ , analysis of variance (using the PROC MIXED method) was performed via a mixed linear effects model, with formulation, period, and sequence treated as fixed effects and subject nested within sequence as a random effect. Throughout the analyses, missing data were, in principle, not imputed. Bioequivalence was assessed using the two one-sided t-tests, and the 90% confidence interval (CI) for the ratio of the geometric least squares means of the two formulations was calculated. If the CI fell entirely within the range of 80.00%–125.00%, the formulations were deemed bioequivalent. Tmax was evaluated using the non-parametric Wilcoxon signed-rank test, and statistical significance was considered when P < 0.05. Pharmacokinetic parameters were calculated using Phoenix WinNonlin (version 8.3), while the remaining statistical analyses and data processing were performed by SAS software (version 9.4). Continuous variables were presented with descriptive statistics, and categorical data were expressed as frequencies and percentages.

[4] = set-up: method as in Eser et al., 2022; conditions: intragastric pH above 4.5; ref Eser et al., 2022; cited from earlier work

CC(=O)c1c(C)c2cnc(Nc3ccc(N4CCNCC4)cn3)nc2n(C2CCCC2)c1=O [palbociclib]
share of AUC0‐∞ covered by AUC0-t [1]: 93%
severity of AEs ([2]; CTCAE v5.0): mild and reported as grade 1
adverse events confirmed as adverse reactions ([2]; of 28 adverse events in 17 subjects): 4
Sum of treatment-emergent AEs, AE count ([2]; safety analysis set): 28
incidence of AEs ([2]; safety analysis set): 51.5%
serious adverse events (SAEs) ([2]; safety analysis set): No SAEs occurred
Intra-subject CV of AUC0-t [3]: 6.14%
Intra-subject CV of AUC0‐∞ [3]: 5.83%
Intra-subject CV of Cmax [3]: 9.65%
solubility [4]: < 500 µg/mL
